Measured values as given in PMC5889910, “β-Carboline Silver Compound Binding Studies with Human Serum Albumin: A Comprehensive Multispectroscopic Analysis and Molecular Modeling Study” (Bioinorganic Chemistry and Applications, 2018).

Legend:
Type in all cases: binding
[1] = target: T1, human serum albumin (HSA) (Homo sapiens, UniProt P02768); test: Far-UV circular dichroism of HSA, α-helix content; design: unit of the concentration uncertain; details: HSA 20 µM, free HSA 67.03
T1 construct: I (residues 1–195), II (196–383), and III (384–585); purchased Sigma
Method: CD measurements were carried out on a Jasco spectropolarimeter (Model J-815) equipped with a microcomputer. The instrument was calibrated with D-10-camphorsulfonic acid. All the CD measurements were performed at 25°C with a thermostatically controlled cell holder, attached to a Neslab RTE-110 water bath with an accuracy of ±0.1°C. Spectra were collected with a scan speed of […] and a response time of 1 s. Each spectrum was taken as the average of three scans. The far-UV CD spectra were measured at a protein concentration of 20 µM at a path length of 1 cm.
(§1) All the spectra were recorded after equilibration of the reaction mixture for 5 min.
The CD signal, expressed in millidegree, obtained over the wavelength range of 190–250 nm, was converted to a mean residue ellipticity (MRE, θ), using the following conversion:(5) MRE=θobs mdeg/10×n×Cp×l, where θ obs is the CD in millidegree, the number of amino acid residues (585) is given by n, “l” is the path length (cm), and C p is the molarity. The unit of MRE is deg·cm^2·dmol^−1.

[2] = target: T1, human serum albumin (HSA); test: UV absorption spectra of HSA with Ag(I) compounds; details: HSA 5 µM, with hyperchromism
Method: (§2) The samples of HSA were prepared in 20 mM phosphate buffer (pH 7.4), whereas silver complexes (1 mM) stock solution were prepared in DMSO and further diluted in 20 mM phosphate buffer to reach the desired concentration. In all the samples, the final concentration of DMSO was not more than 1%. The concentration of HSA was determined using the Beer–Lambert law with the molar extinction coefficient of 36500 M^−1·cm^−1 at 280 nm. To study structural changes in HSA by the addition of [Ag(I)(Hnor)2](anion) compounds, the UV absorption spectra were measured, by variation of the concentration of the [Ag(I)(Hnor)2](anion) compounds, while keeping the concentration of HSA constant. UV absorption spectra, from 240 nm to 320 nm, were recorded on a Perkin–Elmer Lambda 45 spectrophotometer at 25°C. Quartz cuvettes of 1 cm path length were used for the measurements. Fluorescence measurements were performed on a Hitachi spectrofluorometer (Model F 7000) equipped with a PC. The fluorescence spectra were collected at 25°C with a path length cell of 1 cm. The slit width used was 5 nm with a protein concentration of 5 µM. The used excitation wavelength for the protein was 295 nm.
as §1

[3] = target: T1, human serum albumin (HSA); test: Fluorescence quenching of HSA with addition of extra anions (KClO4, KNO3); details: for K SV / K, binding constant / n, number of binding sites: HSA 5 µM; for effect of anion salt alone on HSA structure: without Ag and Hnor, up to the concentration maximum used in the experiments
Method: as §2
Given the fact that the highest anticancer activity and also the most substantial HSA interaction takes place in case of the perchlorate and nitrate salts, it was decided to add extra perchlorate (and also nitrate) for all cases and to study the effect on the binding affinity. So, we carried out two sets of experiments and studied the binding propensity of Ag(I) compounds with HSA. In one experiment, the extra ClO4 ^− anion was added in a 1 : 4 ratio, compared to the Ag compound. In a second experiment, we used additional nitrate together with the Ag(I) compounds. Details are given in Figures 6 and 7, and the quite similar details for the other 3 compounds are presented in Figures S5 and S6 in Supplementary Materials.
To determine the role of only the anions (i.e., without Ag and Hnor), we also used KClO4 and KNO3 and studied their HSA binding by adding variable amounts of anions to the concentration maximum used in the experiments. […] When the extra anions + compounds were titrated, the results obtained did show an exponential increase in binding affinity of the Ag(I) compounds.
The binding strength was evaluated by calculating the Stern–Volmer constant (K sv), a number of the binding sites (n) and Gibbs free energy (ΔG); (Table 2). […] However, no correlation with the size of these four anions is seen.

[4] = target: T1, human serum albumin (HSA); test: Fluorescence quenching titration of HSA (Stern–Volmer analysis); details: for K SV, Stern–Volmer quenching constant: 20 mM phosphate buffer pH 7.4, 25°C, excitation 295 nm; for K q, bimolecular quenching rate constant: Kq = KSV/τ0, τ0 = 10^−8 s, 25°C; for ∆G, standard free energy change of binding: ΔG = −2.303 RT logK
Method: as §2, §1
The interaction between metal compounds and proteins has been widely investigated by using fluorescence spectroscopies. The luminescence response of HSA, upon addition of different concentrations of Ag(I) compounds, was studied in 20 mM phosphate buffer by using an emission titration experiment. Preliminary luminescence studies of the four starting Ag compounds 1–4 have been reported earlier by some of us. The excitation at 290 nm for all four compound results in a strong luminescence band at around 370 nm. The fluorescence studies of the ligand “Hnor” as well as the free silver salt, “AgNO3,” were also studied under the same conditions to compare the effect of separate entities with a combination of the two. Upon excitation at 295 nm, fluorescence intensity around 340 nm is known to reflect the changes of the tryptophan residue microenvironment. […] In Figure S3, similar data are presented for compounds 2–4, with only marginal differences upon anion variation.
The interaction of the Ag compounds with HSA was quantified; the Stern–Volmer equation has been employed:(1) F0/F=1+KSVQ=1+Kqτ0Q, where F 0 and F are the steady-state fluorescence intensities in the absence and presence of quencher at 340 nm, respectively. K sv is the Stern–Volmer quenching constant, K q stands for bimolecular quenching constant, τ 0 is the lifetime of the fluorophore in the absence of quencher, and [Q] is the concentration of quencher (i.e., the Ag compound). By calculating the quenching rate constants, K q, one can distinguish between the static quenching and the dynamic quenching, and this was evaluated by using the following equation:(2) Kq=KSV/τ0.
The value of tau(zero), τ 0, for biopolymers is known to be 10^−8 s. The Stern–Volmer quenching constant (K sv) for the fluorometric titration of the Ag(I) compounds into HSA solution was calculated from the linear relationship between F 0/F and [Ag(I)(Hnor)2]ClO4 (Figure 5) and enlisted in Table 1. In Figure S4, similar data are presented for compounds 2–4, confirming the above observations.
The equilibrium between free and bound molecules, when small molecules bind independently to a set of similar sites on a macromolecule, was ascertained by a modified Stern–Volmer equation [42]:(3) logF0−F/F=logK+n logQ, where K and n are the binding constant and the number of binding sites, respectively. A plot of log(F 0 − F/F) versus log[Q] was used to determine the value of K and n (inset in Figure 5). Several forces, like electrostatic, hydrogen bonds, weak van der Waals, hydrophobic, and steric contacts, can be thought of being responsible for the interaction between the albumin and Ag compounds. […]

[5] = Set A: +extra ClO4− (KClO4, 1:4 ratio)
[6] = Set B: +extra NO3− (KNO3, 1:4 ratio)
[7] = modified Stern–Volmer equation, HSA 5 µM, pH 7.4, 25°C

T1 sequence (P02768 25-609): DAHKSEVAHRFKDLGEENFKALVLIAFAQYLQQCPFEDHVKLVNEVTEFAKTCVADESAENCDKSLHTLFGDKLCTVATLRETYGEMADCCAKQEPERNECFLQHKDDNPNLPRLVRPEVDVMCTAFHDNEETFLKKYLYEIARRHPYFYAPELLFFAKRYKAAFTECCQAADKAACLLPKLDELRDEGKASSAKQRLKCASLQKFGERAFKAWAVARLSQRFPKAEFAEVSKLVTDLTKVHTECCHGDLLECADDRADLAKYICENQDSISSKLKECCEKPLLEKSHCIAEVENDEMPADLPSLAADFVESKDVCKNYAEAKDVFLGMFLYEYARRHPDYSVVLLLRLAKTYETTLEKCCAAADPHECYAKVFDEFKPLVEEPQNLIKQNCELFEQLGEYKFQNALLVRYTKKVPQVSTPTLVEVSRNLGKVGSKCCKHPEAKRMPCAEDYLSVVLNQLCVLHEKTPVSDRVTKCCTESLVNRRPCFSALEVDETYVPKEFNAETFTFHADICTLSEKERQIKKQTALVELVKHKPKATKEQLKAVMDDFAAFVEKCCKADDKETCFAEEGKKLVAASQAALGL

F[B-](F)(F)F.[Ag+].c1ccc2c(c1)[nH]c1cnccc12.c1ccc2c(c1)[nH]c1cnccc12 [Compound 4, [Ag(Hnor)2](BF4)]
% α-helix of HSA ([1]; compound concentration 20 (unit uncertain)): 65.25% | % α-helix of HSA ([1]; compound concentration 40 (unit uncertain)): 63.82% | % α-helix of HSA ([1]; compound concentration 60 (unit uncertain)): 61.53% | % α-helix of HSA ([1]; compound concentration 80 (unit uncertain)): 56.66% | % α-helix of HSA ([1]; compound concentration 100 (unit uncertain)): 47.52% | redshift (bathochromic effect) of HSA UV absorbance [2]: 6 nm | K SV [3, 5]: 1.85 10^7 M^−1 | K, binding constant [3, 5]: 1.19 10^10 M^−1 | n, number of binding sites [3, 5]: 1.69 | ∆G [3, 6]: -13.07 kcal/mol | K SV [3, 6]: 1.38 10^7 M^−1 | K, binding constant [3, 6]: 0.38 10^10 M^−1 | n, number of binding sites [3, 6]: 1.48 | K SV, Stern–Volmer quenching constant ([4]; HSA 5 µM): 3.97 10^5 M^−1 | redshift at the maximal emission wavelength of Tyr and Trp residues of HSA ([4]; HSA 5 µM, increasing compound concentration): 4 nm | K q, bimolecular quenching rate constant ([4]; HSA 5 µM): 39.7 10^12 M^−1·s^−1 | K, binding constant [4, 7]: 1.14 10^6 M^−1 | n, number of binding sites [4, 7]: 1.1 | ∆G, standard free energy change of binding [4]: -8.258 kcal/mol

c1ccc2c(c1)[nH]c1cnccc12 [Hnor, 9H-pyrido[3,4-b]indole, reference compound]
K SV, Stern–Volmer quenching constant ([4]; HSA 5 µM): 2.95 10^5 M^−1 | K q, bimolecular quenching rate constant ([4]; HSA 5 µM): 29.5 10^12 M^−1·s^−1 | n, number of binding sites [4, 7]: 1.0 | Kd ([4]; modified Stern–Volmer equation, HSA 5 µM, pH 7.4, 25°C, read-out: K, binding constant (converted)): 3.03 µM | ∆G, standard free energy change of binding [4]: -7.505 kcal/mol

[K+].[O-][Cl+3]([O-])([O-])[O-] [KClO4, reference compound]
effect of anion salt alone on HSA structure [3]: negligible perturbance of the HSA structure

O=[N+]([O-])[O-].[K+] [KNO3, reference compound]
effect of anion salt alone on HSA structure [3]: negligible perturbance of the HSA structure
